The target of the assay is Human DGAT2 (Homo sapiens (Human), UniProt Q96PD7). Briefly: DGAT2 Enzymatic Activity Assay (triolein formation, LC/MS/MS). The assay is classed as biochemical. The following applies: hDGAT2 Sf-9 membrane prep; 25 μM diolein, 10 μM oleoyl-CoA; room temperature. How it is done:
Sf-9 insect cells were maintained in Grace's insect cell culture medium with 10% heated-inactivated fetal bovine serum, 1% Pluronic F-68 and 0.14 μg/m Kanamycine sulfate in Erlenmeyer flasks at 28° C. in a shaker incubator. After infection with untagged hDGAT2 baculovirus at multiplicity of infection (MOI) 0.1 for 48 hours, cells were harvested. Cell pellets were suspended in buffer containing 10 mM Tris-HC (pH 7.5), 1 mM EDTA (pH 8.0), 250 mM sucrose and Complete Protease Inhibitor Cocktail (Roche Diagnostics Corp., Indianapolis, Ill.), and sonicated on ice. Membrane fractions were isolated by ultracentrifugation (100,000×g pellet), resuspended in the same buffer, and frozen (−80° C.) for later use. The protein concentration was determined with the BCA Protein Assay kit (Pierce Biotechnology Inc., Rockford, Ill.). Expression of protein levels was analyzed by immunoblotting with goat polyclonal DGAT2 antibody C-15 and donkey anti-goat IgG HRP (Santa Cruz Biotechnology, Inc., Santa Cruz, Calif.) followed by detection with ECL reagent (GE Healthcare, Piscataway, N.J.).
LC/MS/MS analyses were performed using Thermal Fisher's LX4-TSQ Vantage system. This system consists of an Agilent binary high-performance liquid chromatography (HPLC) pumps and a TSQ Vantage triple quadrupole MS/MS instrument. For each sample, 2 μL samples from the top organic layer of in-plate liquid-liquid extraction were injected onto a Thermo Betabasic C4 column (2.1 mm×20 mm, 5 μm particle size). The samples were then eluted using the following conditions; mobile phase: MeOH/water with 0.1% ammonium format=92/8 (v/v), flow rate: 1 mL/min, temperature: 25 C. Data was acquired in positive mode using a heated electrospray ionization (HESI) interface. The operational parameters for the TSQ Vantage MS/MS instrument were a spray voltage of 3000 V, capillary temperature of 280° C., vaporizer temperature 400° C., shealth gas 60 arbitrary unit, Aux gas 40 arbitrary units, S-lens 113 and collision gas 0.16 Pascals. […] (SRM) chromatograms of triolein (Q1: 902.9>Q3:602.3) and internal standard ([…]) were collected for 40 sec. The peak area was integrated by Xcalibur Quan software. The ratio between the triolein generated in the reaction and spiked in internal standard was used to generate percentage inhibition and IC50 values. Compound percentage inhibition was calculated by the following formula: Inhibition %=1−[(compound response−low control)/(high control−low control)]×100%. Potent compounds were titrated and IC50 were calculated by 4 parameter sigmoidal curve fitting formula.
DGAT2 activity was determined by measuring the amount of enzymatic product triolein (1,2,3-Tri(cis-9-octadecenoyl)glycerol) using the membrane prep mentioned above. The assay was carried out in deep well 384 plates in a final volume of 40 μL at room temperature. The assay mixture contained the following: assay buffer (100 mM Tris.Cl, pH 7.0, 20 mM MgCl2, 5% ethanol), 25 μM of diolein, 10 μM of oleoyl-CoA and 10 ng/μL of DGAT2 membrane.
Chain of Human DGAT2 (Q96PD7 whole entry): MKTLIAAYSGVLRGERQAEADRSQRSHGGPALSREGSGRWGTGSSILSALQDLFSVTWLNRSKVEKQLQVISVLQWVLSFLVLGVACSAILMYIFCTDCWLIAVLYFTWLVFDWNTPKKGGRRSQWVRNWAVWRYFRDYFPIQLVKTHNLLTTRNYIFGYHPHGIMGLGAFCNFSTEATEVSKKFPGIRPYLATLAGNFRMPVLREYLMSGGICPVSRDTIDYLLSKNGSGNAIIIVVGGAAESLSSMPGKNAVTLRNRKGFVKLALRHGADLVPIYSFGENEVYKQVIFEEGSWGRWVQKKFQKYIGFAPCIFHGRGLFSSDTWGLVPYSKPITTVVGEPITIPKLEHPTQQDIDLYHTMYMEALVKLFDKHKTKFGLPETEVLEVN
For the molecule `COC(=O)c1ccc(-n2nc(-c3ccccc3Cl)c3ccc(C(=O)NC4(C)CCS(=O)(=O)C4)cc32)cc1` (racemic) [Example 187, methyl 4-{3-(2-chlorophenyl)-6-[(3-methyl-1,1-dioxidotetrahydrothiophen-3-yl)carbamoyl]-1H-indazol-1-yl}benzoate], the IC50 (as a rule, the point on the concentration scale where inhibition reaches its midpoint) was 644 nM.
Next, `O=C(NC1(CO)CC1)c1ccc2c(-c3ccccc3Cl)nn(-c3ccc(F)cc3)c2c1` [Example 61, 3-(2-chlorophenyl)-1-(4-fluorophenyl)-N-[1-(hydroxymethyl)cyclopropyl]-1H-indazole-6-carboxamide]: 73 nM; `COC(=O)C1(NC(=O)c2ccc3c(-c4ccccc4Cl)nn(-c4ccc(F)cc4)c3c2)CCCC1` [Example 63, methyl 1-({[3-(2-chlorophenyl)-1-(4-fluorophenyl)-1H-indazol-6-yl]carbonyl}amino)cyclopentane-carboxylate]: 405 nM; `CCOC(=O)c1coc(-n2nc(-c3ccccc3Cl)c3ccc(C(=O)NC4(C)CCS(=O)(=O)C4)cc32)n1` (racemic) [Example 188, ethyl 2-{3-(2-chlorophenyl)-6-[(3-methyl-1,1-dioxidotetrahydrothiophen-3-yl)carbamoyl]-1H-indazol-1-yl}-1,3-oxazole-4-carboxylate]: 95 nM.
Next, `CC1(NC(=O)c2ccc3c(-c4ccccc4Cl)nn(-c4nnc(C5CC5)s4)c3c2)CCS(=O)(=O)C1` (racemic) [Example 190, 3-(2-chlorophenyl)-1-(5-cyclopropyl-1,3,4-thiadiazol-2-yl)-N-(3-methyl-1,1-dioxidotetrahydrothiophen-3-yl)-1H-indazole-6-carboxamide]: 45 nM; `CC1(NC(=O)c2ccc3c(-c4ccnc(C(F)(F)F)c4)nn(-c4ccc(F)cc4)c3c2)CCS(=O)(=O)C1` (single isomer, unassigned) [Example 159-A, 1-(4-fluorophenyl)-N-(3-methyl-1,1-dioxidotetrahydrothiophen-3-yl)-3-[2-(trifluoromethyl)pyridin-4-yl]-1H-indazole-6-carboxamide]: 469 nM.
`COc1cc(-c2nn(-c3ccc(F)cc3)c3cc(C(=O)NC4(C)CCS(=O)(=O)C4)ccc23)ccn1` (single isomer, unassigned) [Example 140-A, 1-(4-fluorophenyl)-3-(2-methoxypyridin-4-yl)-N-(3-methyl-1,1-dioxidotetrahydrothiophen-3-yl)-1H-indazole-6-carboxamide] registered a concentration for half-maximal inhibition (IC50) of 455 nM.
Next, `CC1(NC(=O)c2ccc3c(-c4ccccc4Cl)nn(-c4ccc(F)cc4)c3c2)CCS(=O)(=O)C1` (single isomer, unassigned) [Example 1-B, 3-(2-chlorophenyl)-1-(4-fluorophenyl)-N-(3-methyl-1,1-dioxidotetrahydrothiophen-3-yl)-1H-indazole-6-carboxamide]: 8.3 nM; `CC1(NC(=O)c2ccc3c(-c4cc(C#N)ccc4Cl)nn(-c4ccc(F)cc4)c3c2)CCS(=O)(=O)C1` (single isomer, unassigned) [Example 119-B, 3-(2-chloro-5-cyanophenyl)-1-(4-fluorophenyl)-N-(3-methyl-1,1-dioxidotetrahydrothiophen-3-yl)-1H-indazole-6-carboxamide]: 2.5 nM.
Next, `N#Cc1ccc(Cl)c(-c2nn(-c3ccc(F)cc3)c3cc(C(=O)NC4CCS(=O)(=O)C4)ccc23)c1` (single isomer, unassigned) [Example 120-A, 3-(2-chloro-5-cyanophenyl)-N-(1,1-dioxidotetrahydrothiophen-3-yl)-1-(4-fluorophenyl)-1H-indazole-6-carboxamide]: 4.2 nM; `N#Cc1cccc(-c2nn(-c3ccc(F)cn3)c3cc(C(=O)N[C@H]4CCS(=O)(=O)C4)ccc23)c1` [177-B]: 86 nM.

These data come from patent publication US11104690B2, “Indazole derivatives useful as inhibitors of diacylglyceride O-acyltransferase 2” (Merck Sharp & Dohme Corp., priority 2016, dated 2021).
